Counter-ions that a name gives are not always drawn.
Columns and labels:
[1] = target: T1, Human adenosine A1 receptor (Homo sapiens, UniProt P30542); test: Adenosine A1 receptor binding experiment (3H-CCPA); conditions: human A1 receptor expressed in CHOK1 membranes
T1 construct: expressed in transfected cells; host or cells: CHOK1 cells (membrane specimen)
T1 sequence (P30542 1-326): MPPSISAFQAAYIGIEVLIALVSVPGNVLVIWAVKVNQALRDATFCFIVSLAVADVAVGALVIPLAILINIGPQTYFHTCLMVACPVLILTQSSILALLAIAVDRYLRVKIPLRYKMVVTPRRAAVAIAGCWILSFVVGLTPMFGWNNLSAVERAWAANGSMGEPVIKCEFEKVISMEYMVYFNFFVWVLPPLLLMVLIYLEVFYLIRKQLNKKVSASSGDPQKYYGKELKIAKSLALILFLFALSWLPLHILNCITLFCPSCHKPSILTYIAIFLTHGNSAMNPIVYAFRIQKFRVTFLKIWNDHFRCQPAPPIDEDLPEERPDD
Description: Human adenosine A1 receptor cDNA was subjected to an over-expression in CHOK1 cells and its membrane specimen was suspended in an incubation buffer (20 mM HEPES, 10 mM MgCl2 and 100 mM NaCl; pH 7.4) to make the concentration 66.7 μg/ml. To 0.45 ml of this membrane specimen were added 0.025 ml of tritium-labeled chlorocyclopentyl adenosine (60 nM ^3H-CCPA; 30 Ci/mmol) and 0.025 ml of the compound to be tested. The solution of the compound to be tested was prepared in such a manner that, firstly, the compound was dissolved in DMSO to make 20 mM concentration and then successively diluted each 10-fold using an incubation buffer. The mixture was allowed to stand at 30° C. for 120 minutes, subjected to a quick suction on a glass fiber filter (GF/B; manufactured by Whatman) and immediately washed with 5 ml of ice-cooled 50mM Tris-HCl buffer twice. After that, the glass fiber filter was transferred to a vial bottle, a scintillator was added and the radioactivity on the filter was measured by a liquid scintillation counter. Calculation of the inhibition rate of the test compound to the receptor bond (^3H-CCPA) was carried out by the following expression and, based upon that, IC50 was calculated.
Inhibition Rate (%)=[1−{(Binding amount in the presence of drug-Non-specific binding amount)/(Total binding amount-Non-specific binding amount)}]×100
Total binding amount is a ^3H-CCPA binding radioactivity in the absence of the test compound.
Non-specific binding amount is a ^3H-CCPA binding radioactivity in the presence of 100 μM of RPIA.
Binding amount in the presence of drug is a ^3H-CCPA binding radioactivity in the presence of the test compound of various concentrations.
The inhibition constant (Ki value) in Table was calculated from Cheng-Prusoff's expression.

[2] = test system: Hepatic cells of primary culture of rats; test: Suppressing action to NECA-stimulated saccharogenesis (glucose release) in primary cultured rat hepatic cells; assay type: cell-based; conditions: 0.1 μM NECA, 1 h incubation, glucose released into medium
Description: Hepatic cells were separated by a collagenase perfusion method from liver of male rats of Wistar strain and subjected to a primary culture in a William's Medium E containing 5% of calf serum, 10^−6 M of insulin, 10^−7 M of dexamethasone and 30 ng/ml of pertussal toxin. After one day, the hepatic cells were washed with a Krebs-Ringer Bicarbonate buffer (pH 7.4 (KRB)) containing 10 mM of HEPES and 0.1% of bovine serum albumin and incubated with KRB at 37° C. After 30 minutes, 0.1 μM of NECA (N-ethylcarboxamide adenosine) and a test compound were added thereto at the same time, the mixture was incubated for additional one hour and the amount of glucose released into an incubation medium was measured.

[3] = test system: spontaneous diabetic mice (KK-A^y/Ta Jcl); test: Action to hyperglycemia of spontaneous diabetic mice (KK-A^y/Ta Jcl), single oral administration; assay type: in vivo, mouse; conditions: 5 h
Description: Animals: Five male KK-A^y/Ta Jcl mice for each group (purchased from Nippon Clair)
Preparation and Administration of Test Compound: A test compound in a dose as shown in Table 2 was suspended in a 0.5% aqueous solution of methyl cellulose and was orally administered in a dose of 10 ml/kg.
Collection of Blood Samples and Determination of Blood Sugar: Blood was collected from tail vein immediately before administration of the test compound and also five hours after the administration and blood sugar was determined.
(§1) Method: Tail vein of a mouse was injured by a razor without an anesthetization to bleed slightly. The blood (15 μl) was collected and immediately mixed with 135 μl of a 0.6 M perchloric acid. Glucose in the supernatant obtained by a centrifugal separation (at 1500 g for 10 minutes at 4° C. using a cooling centrifuge GS-6KR of Beckmann) was determined by a Glucose CII Test Wako (Wako Pure Chemicals).
The result is shown in terms of “(% ratio of the blood sugar after 5 hours from the administration to the blood sugar before the administration)±(standard error)”. The data were subjected to a one-way layout analysis of variance and then subjected to a multiple comparison of a Dunnett type. The case where p<0.05 was judged to be that a significant difference was available.
Animals: Five male KK-A^y/Ta Jcl mice for each group (introduced from Nippon Clair)
Preparation and Administration of Test Compound: A test compound in a dose shown in Table 6 was suspended in a 0.5% aqueous solution of methyl cellulose and was orally administered in a dose of 10 ml/kg.
as §1, with “vein of mouse was” for “vein of a mouse was”
The result is shown in terms of “(% ratio of the blood sugar after 5 hours from the administration to the blood sugar before the administration)±(standard error)”. The data were subjected to a one-way layout analysis of variance and then subjected to a multiple comparison of Dunnett type. The case where p<0.05 was judged that a significant difference was available.

SMILES | IC50 [2] [nM] | melting point [°C] | also measured
CCn1c(=O)c2c(nc(/C=C/c3ccc(OC)c(OC)c3)n2C)n(CC)c1=O | – | – | Ki [1]: > 10000 nM
CN(C)c1ccc(-n2c(-c3cccc(F)c3)nc3c(N)nc(C#CC4(O)CCCCC4)nc32)cc1 [Example 3, 1-{2-[6-Amino-9-[4-(dimetylamino)phenyl]-8-(3-fluorophenyl)-9H-2-purinyl]-1-ethynyl}-1-cyclohexanol Dihydrochloride] | 130 | – | –
CCn1c(-c2cccc(F)c2)nc2c(N)nc(C#CC3(O)CCC3)nc21.Cl [Example 8, 1-{2-[6-Amino-9-ethyl-8-(3-fluorophenyl)-9H-2-purinyl]-1-ethynyl}-1-cyclobutanol Hydrochloride] | 490 | 160 to 163 | % ratio of the blood sugar after 5 hours from the administration to the blood sugar before the administration ± standard error ([3]; Table 2-1, 10 mg/kg oral, solvent group 72.4 ± 4.4): 47.8 ± 4.8%
Cn1c(-c2cccc(F)c2)nc2c(N)nc(C#CC3(O)CCCC3)nc21 [Example 19, 1-{2-[6-Amino-8-(3-fluorophenyl)-9-methyl-9H-2-purinyl]-1-ethynyl}-1-cyclopentanol Sulfate] | 470 | – | –
Cn1c(-c2cccc(F)c2)nc2c(N)nc(C#CC3(O)CCCCC3)nc21 [Example 31, 1-{2-[6-Amino-8-(3-fluorophenyl)-9-methyl-9H-2-purinyl]1-ethynyl}-1-cyclohexanol Hydrochloride] | 130 | – | –
Cn1c(-c2cccc(F)c2)nc2c(N)nc(C#CC(C)(C)O)nc21 [Example 64 (sulfate), Hydrochloride] | 730 | – | –
Cl.Cn1c(-c2cccc(F)c2)nc2c(N)nc(C#CC(C)(C)O)nc21 [Example 64, 4-[6-Amino-8-(3-fluorophenyl)-9-methyl-9H-2-purinyl]-2-methyl-3-butyn-2-ol Hydrochloride] | – | – | % ratio of the blood sugar after 5 hours from the administration to the blood sugar before the administration ± standard error ([3]; Table 2-2, 10 mg/kg oral, solvent group 67.6 ± 2.4): 42.3 ± 4.8%
Cl.Cn1c(-c2cccc(F)c2)nc2c(N)nc(C#CC3(O)CCC3)nc21 [Example 89, 1-{2-[6-Amino-8-(3-fluorophenyl)-9-methyl-9H-2-purinyl]-1-ethynyl}-1-cyclobutanol Hydrochloride] | 430 | 198 to 199 | % ratio of the blood sugar after 5 hours from the administration to the blood sugar before the administration ± standard error ([3]; Table 2-2, 30 mg/kg oral, solvent group 67.6 ± 2.4): 38.3 ± 4.4%
CCn1c(-c2cccc(F)c2)nc2c(N)nc(C#CC3(O)CCCC3)nc21.Cl [Example 133, 1-{2-[6-Amino-9-ethyl-8-(3-fluorophenyl)-9H-2-purinyl]-1-ethynyl}-1-cyclopentanol Hydrochloride] | 200 | 188 to 191 | –
CCCn1c(-c2cccc(F)c2)nc2c(N)nc(C#CC3(O)CCCC3)nc21.Cl [Example 169, 1-{2-[6-Amino-8-(3-fluorophenyl)-9-propyl-9H-2-purinyl]-1-ethynyl}-1-cyclopentanol Hydrochloride] | 480 | 198 to 200 | –
CCCn1c(-c2cccc(F)c2)nc2c(N)nc(C#CC3(O)CCC3)nc21.Cl [Example 170, 1-{2-[6-Amino-8-(3-fluorophenyl)-9-propyl-9H-2-purinyl]-1-ethynyl}-1-cyclobutanol Hydrochloride] | 500 | 144 to 146 | –
CCCn1c(-c2cccc(F)c2)nc2c(N)nc(C#CC(C)(C)O)nc21.Cl [Example 171, 4-[6-Amino-8-(3-fluorophenyl)-9-propyl-9H-2-purinyl]-2-methyl-3-butyn-2-ol Hydrochloride] | 1010 | 167 to 168 | –
Cl.Cn1c(-c2cccc(F)c2)nc2c(N)nc(/C=C/C3(O)CCCC3)nc21 [Example 208, 1-[(E)-2-[6-Amino-8-(3-fluorophenyl)-9-methyl-9H-2-purinyl]-1-ethenyl]-1-cyclopentanol Hydrochloride] | 270 | > 290 | –
CCn1c(-c2cccc(F)c2)nc2c(N)nc(/C=C/C(C)(C)O)nc21.Cl [Example 210, (E)-4-[6-Amino-9-ethyl-8-(3-fluorophenyl)-9H-2-purinyl]-2-methyl-3-buten-2-ol Hydrochloride] | 520 | – | % ratio of the blood sugar after 5 hours from the administration to the blood sugar before the administration ± standard error ([3]; Table 2-3, 10 mg/kg oral, solvent group 70.7 ± 4.6): 51.5 ± 4.6%
Cl.Cn1c(-c2cccc(F)c2)nc2c(N)nc(/C=C/C3(O)CCC3)nc21 [Example 215, 1-[(E)-[6-Amino-8-(3-fluorophenyl)-9-methyl-9H-2-purinyl]-1-ethenyl]-1-cyclobutanol Hydrochloride] | 220 | 181 to 184 | –
CCn1c(-c2cccc(F)c2)nc2c(N)nc(CCC(O)(CC)CC)nc21 [Example 235, 1-[6-Amino-9-ethyl-8-(3-fluorophenyl)-9-2-purinyl]-3-ethyl]-3-pentanol Hydrochloride] | 1270 | – | –
Cn1c(-c2cccc(F)c2)nc2c(N)nc(C#CC3(O)CCCC3)nc21 [drawing 260] | – | – | Ki [1]: 19 nM
CCCn1c(=O)c2c(nc(/C=C/c3ccc(OC)c(OC)c3)n2C)n(CCC)c1=O [drawing 263] | – | – | Ki [1]: > 10000 nM

Source: patent publication US6579868B1, “Purine derivatives and adenosine A2 receptor antagonists serving as preventives/remedies for diabetes” (Eisai Co., Ltd., priority 1998, dated 2003)
